# Ends that are not written are not given here. Peptide text beside a SMILES is read from it.
# Molecular target: angiotensin-converting enzyme (ACE) (Homo sapiens, UniProt P12821)
# Assay: ACE inhibitory activity in vitro (IC50)
# Assay type: biochemical
# Settings: chemically synthesised peptides, method of ref 35 with modifications of ref 28, mean ± SD, SD, read-out: ACEi Activity IC50 (µm) ± SD
# Text: The ACE inhibitory activity of the samples was studied using the methodology specified in [35], with some modifications. The ACE inhibitory activity is shown as IC50, or the concentration needed to inhibit the activity of the enzyme by 50%.
# Chain of angiotensin-converting enzyme (ACE) (P12821 30-1306, species assumed): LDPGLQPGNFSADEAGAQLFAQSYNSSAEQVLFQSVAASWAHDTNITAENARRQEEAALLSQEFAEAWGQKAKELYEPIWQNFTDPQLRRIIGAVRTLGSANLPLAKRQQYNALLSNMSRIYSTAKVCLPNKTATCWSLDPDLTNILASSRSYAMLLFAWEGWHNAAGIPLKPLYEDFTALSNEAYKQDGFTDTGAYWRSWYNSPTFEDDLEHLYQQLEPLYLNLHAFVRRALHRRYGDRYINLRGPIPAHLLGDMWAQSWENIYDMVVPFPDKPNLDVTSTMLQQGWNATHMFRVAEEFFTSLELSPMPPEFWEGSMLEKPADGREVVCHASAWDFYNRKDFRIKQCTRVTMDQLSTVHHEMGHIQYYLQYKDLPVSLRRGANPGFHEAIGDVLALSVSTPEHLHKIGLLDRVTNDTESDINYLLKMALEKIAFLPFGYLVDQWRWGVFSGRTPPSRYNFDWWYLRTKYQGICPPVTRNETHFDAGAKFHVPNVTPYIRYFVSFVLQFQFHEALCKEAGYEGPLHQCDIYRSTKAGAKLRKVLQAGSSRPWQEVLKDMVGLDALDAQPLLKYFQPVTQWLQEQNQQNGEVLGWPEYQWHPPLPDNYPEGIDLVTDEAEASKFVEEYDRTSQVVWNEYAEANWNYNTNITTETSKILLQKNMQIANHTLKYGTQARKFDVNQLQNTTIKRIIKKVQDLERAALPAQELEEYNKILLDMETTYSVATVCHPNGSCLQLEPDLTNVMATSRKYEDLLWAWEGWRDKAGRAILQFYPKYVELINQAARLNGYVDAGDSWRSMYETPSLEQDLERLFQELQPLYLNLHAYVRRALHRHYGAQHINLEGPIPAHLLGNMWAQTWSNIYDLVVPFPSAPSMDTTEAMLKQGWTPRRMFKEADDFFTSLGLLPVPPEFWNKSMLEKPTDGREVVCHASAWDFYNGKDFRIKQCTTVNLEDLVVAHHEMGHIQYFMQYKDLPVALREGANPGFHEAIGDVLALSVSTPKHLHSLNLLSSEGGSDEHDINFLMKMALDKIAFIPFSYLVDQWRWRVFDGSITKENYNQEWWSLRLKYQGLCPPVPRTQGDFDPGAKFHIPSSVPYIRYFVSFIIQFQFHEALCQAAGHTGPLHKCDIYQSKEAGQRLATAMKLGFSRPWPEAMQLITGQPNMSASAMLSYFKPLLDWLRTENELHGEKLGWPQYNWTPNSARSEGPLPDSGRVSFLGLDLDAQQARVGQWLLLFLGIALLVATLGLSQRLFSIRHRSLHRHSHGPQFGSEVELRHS
row,Compound,IC50 [µM]
1,C[C@H](NC(=O)[C@H](C)NC(=O)[C@@H](N)Cc1c[nH]c2ccccc12)C(=O)NCC(=O)N[C@@H](Cc1ccc(O)cc1)C(=O)N[C@@H](CS)C(=O)N[C@@H](CS)C(=O)O [SEQ No.8] (H-WAAGYCC-OH),6.88 ± 0.3
2,EECHAH [SEQ No.9],11.8 ± 1.99
3,CC(C)[C@H](NC(=O)[C@H](C)NC(=O)[C@H](CC(N)=O)NC(=O)CNC(=O)[C@H](CS)NC(=O)[C@@H](N)CS)C(=O)N1CCC[C@H]1C(=O)N[C@@H](CCC(N)=O)C(=O)O [SEQ No.4] (H-CCGNAVPQ-OH),39.6 ± 2.09
4,CC(C)C[C@H](NC(=O)[C@H](CC(=O)O)NC(=O)[C@H](CS)NC(=O)CNC(=O)[C@H](CS)NC(=O)CNC(=O)[C@@H](N)Cc1ccc(O)cc1)C(=O)N1CCC[C@H]1C(=O)O [SEQ No.5] (H-YGCGCDLP-OH),3.51 ± 0.21
5,CC(C)C[C@H](N)C(=O)N[C@@H](CCC(=O)O)C(=O)N[C@@H](CCC(=O)O)C(=O)N[C@@H](Cc1ccccc1)C(=O)N[C@@H](CS)C(=O)N[C@@H](CS)C(=O)O [SEQ No.2] (H-LEEFCC-OH),1.85 ± 0.16
6,C[C@@H](O)[C@H](NC(=O)[C@H](CC(N)=O)NC(=O)[C@H](CS)NC(=O)CNC(=O)[C@H](CS)NC(=O)[C@@H](N)Cc1c[nH]cn1)C(=O)N[C@@H](Cc1c[nH]cn1)C(=O)O [SEQ No.3] (H-HCGCNTH-OH),2.58 ± 0.26
7,LALAPTN [SEQ No.14],135 ± 13.5
8,N=C(N)NCCC[C@H](N)C(=O)N[C@@H](CC(=O)O)C(=O)NCC(=O)NCC(=O)N[C@@H](Cc1ccc(O)cc1)C(=O)N[C@@H](CS)C(=O)N[C@@H](CS)C(=O)O [SEQ No.1] (H-RDGGYCC-OH),0.84 ± 0.02
9,LEFTSSY [SEQ No.12],107 ± 14.7
10,YMHCYF [SEQ No.7],3.2 ± 0.23
11,LALSAPVP [SEQ No.16],305 ± 10.9
12,CC(C)C[C@H](NC(=O)[C@@H]1CCCN1C(=O)[C@H](CC(=O)O)NC(=O)[C@H](CS)NC(=O)CNC(=O)[C@H](CS)NC(=O)CNC(=O)[C@@H](N)Cc1ccc(O)cc1)C(=O)O [SEQ No.6] (H-YGCGCDPL-OH),1.64 ± 0.02
13,RPVPPVF [SEQ No.15],230 ± 36.5

# Same assay, conditions: chemically synthesised peptides, method of ref 35 with modifications of ref 28, mean ± SD, read-out: ACEi Activity IC50 (µm) ± SD
row,Compound,IC50 [µM]
1,EAPGGYDD [SEQ No.19],> 405
2,KRRPPTT [SEQ No.18],> 390
3,YEAYPS [SEQ No.21],> 460
4,MSMAPY [SEQ No.23],> 480

# System: ACE
# Assay: not given
# Settings: bovine casein-derived peptide; cited from earlier work
# Text: The process of development of high blood pressure in humans presents analogies with the development of hypertension in SHR. For this reason, the SHR model has been extensively used in the evaluation of food peptides with antihypertensive potential. […] It contains four dipeptides (DG, GG, GY, DG) with previously reported activity, h ...
row,Compound,In vitro ACE inhibitory activity
1,KVLPVPQ,low in vitro ACE inhibitory activity

# System: not listed separately
# Assay: Water solubility of synthetic peptide
# Assay type: physicochemical
# Settings: reason why the ACE activity was not determined
row,Compound,Water solubility
1,"LQFCCY [SEQ No.17, synthetic peptide LQFCCY from olive oil extract]",not water soluble

# System: spontaneously hypertensive rats (SHR)
# Assay: Antihypertensive activity in SHR, tail-cuff SBP after acute oral administration
# Assay type: in vivo, rat
# Settings: oral Captopril 50 mg/kg BW, at 24 h
# Text: The antihypertensive effect of synthetic peptides No. 1 (RDGGYCC), No. 2 (LEEFCC), No. 3 (HCGCNTH) and No. 4 (CCGNAVPQ) was studied on the systolic blood pressure (SBP) and diastolic blood pressure (DBP) using the spontaneously hypertensive rat (SHR) animal model of hypertension. The tail-cuff method was used to measure SBP and DBP [36] as described in [28]. We selected a dose of synthetic peptides in the range described in previous studies of antihypertensive effects of peptides with ACE inhibitory activity. SBP and DBP data was always collected by the same technician. A period of training of two weeks was set to allow the animals to be habituated to this methodology. Forty-eight male SHR (age 19–21 weeks) were used. The average BW of the animals was 322.0 ± 6.0 g. The synthetic peptides were dissolved in water and were administered orally to the animals (about 1 mL per animal). The ACE inhibitor drug Captopril (Sigma, St. Louis, MO, USA) was used as a positive control and water was used as a negative control. The SHR were distributed randomly into 6 study groups (n = 8 per group) and received an oral dose of one of the four synthetic peptides (25 mg/kg of BW), or a dose of Captopril (50 mg/kg of BW) or water (1 mL). SBP and DBP were measured in the rats at baseline (time 0) and at 2, 4, 8 and 24 h post-administration of the peptides or controls. […]
row,Compound,Time course of the antihypertensive effect (SBP)
1,C[C@H](CS)C(=O)N1CCC[C@H]1C(=O)O [Captopril],returned to basal levels

# System: SHR
# Assay: not given
# Settings: bovine casein-derived peptide; cited from earlier work
# Text: The study of ACE inhibitor peptides in foods is a very active area of research and there are a few available data bases with information on peptide sequences and biological activity. We used the BIOPEP data base to assist with our selection of peptides because it uses previous published research providing information about the number of ACE inhibitor motifs of a peptide sequence and calculates the peptide's theoretical activity. Apart from the ACE inhibitory activity, the data base detected additional potential activities of our selected peptides, including antioxidant (Nos. 9 and 11), anti-th ... || The process of development of high blood pressure in humans presents analogies with the development of hypertension in SHR. For this reason, the SHR model has been extensively used in the evaluation of food peptides with antihypertensive potential. […] It contains four dipeptides (DG, GG, GY, DG) with previously reported activity, h ...
row,Compound,SBP reducing effect in SHR
1,KVLPVPQ,high SBP reducing effect

# Reference: PMC7019360, “Antihypertensive Effects of Virgin Olive Oil (Unfiltered) Low Molecular Weight Peptides with ACE Inhibitory Activity in Spontaneously Hypertensive Rats” (Nutrients, 2020)
